Assay results from article PMC11434868, “Synthesis and Antiproliferative Effect of 3,4,5-Trimethoxylated Chalcones on Colorectal and Prostatic Cancer Cells” (Pharmaceuticals, 2024).

Legend:
PC3 [1] = assay: Trypan blue dye exclusion method on PC3; format: cell-based, human
Method: (§1) Human CRC (HCT116 and HT-29) and PCa (DU145 and PC3) cell lines were purchased from the American Type Culture Collection (ATCC—LGC Standards, Molsheim, France). All cells were grown in RPMI 1640 medium supplemented with 10% FBS, 1% L-glutamine, 100 U/mL penicillin, and 100 μg/mL streptomycin. Cultures were maintained in a humidified atmosphere containing 5% CO2 at 37 °C. Cells were seeded in 75 cm^2 culture flasks at 1.2 × 10^4 cells/cm^2 for HCT116, DU145, and PC3 cells, and 2.0 × 10^4 for HT-29 cells. Cells were grown for 24 h in culture medium prior to exposure or not to obtain the synthesized compounds. Stock solutions (10^−2 M in DMSO) of each compound were diluted in culture medium to obtain appropriate final concentrations.
(§2) • (a) MTT assay: The antiproliferative effect of all compounds was determined using MTT assay (a metabolic activity test). Briefly, cells were seeded in 96-well culture plates at 4 × 10^3 cells/well for HCT116, PC3, and DU145 cells and 6 × 10^3 cells/well for HT-29 cells (100 µL/well), and grown for 24 h in culture medium prior to exposure or not to obtain compounds 1–15 with concentrations ranging from 5 nM to 50 μM. After 24 and 48 h of treatment, MTT (5 mg/mL in PBS) was added and incubated for another 3 h. MTT was then removed from the wells before adding 100 μL/well of DMSO. The optical density was detected with a microplate reader (Multiskan FC, Thermoscientific, Bordeaux, France) at 550 nm and cell viability was expressed as a percentage of each treatment condition compared to control cells. IC50 values were calculated for all compounds from the dose–response curve. Data are expressed as the arithmetic means ± standard error of the mean (SEM) of separate experiments. All experiments were performed at least in triplicate. • (b) Trypan blue dye exclusion method: Cells were grown for 24 h then treated with compounds 10 and 13 at indicated concentrations. After 48 h of treatment, cells were trypsinized and resuspended in complete medium. Each sample was mixed with Trypan blue solution (0.14% in HBSS, Invitrogen-GIBCO, ThermoFisher, Illkirch, France). Colored (non-viable) and dye-excluding (viable) cells were counted with the LUNA-II automated cell Counter (Logos Biosystems; MC2, Aubière, France). The control was normalized to 100% including viable and dead cells. The results indicated on the histograms were expressed as the percentage of cells compared to the control. IC50 values were determined from the percentages of viable cells compared to the control.

PC3 [2] = assay: MTT assay, antiproliferative effect on PC3; format: cell-based; conditions: Homo sapiens
Method: as §1, §2

[3] = test system: caspase-3 and PARP in HT-29 cells; assay: Western blot of apoptosis-related proteins in HT-29; format: cell-based, human; conditions: HT-29, 48 h;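 note: compared with untreated control cells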
Method: (§3) For total protein extraction, collected samples of each condition were washed in PBS. Then, the total cell pool was centrifuged at 200 g for 5 min at 4 °C and homogenized in RIPA lysis buffer (50 mM HEPES, pH 7.5, 150 mM NaCl, 1% sodium deoxycholate, 1% NP-40, 0.1% SDS, […] of aprotinin) containing protease inhibitors according to the manufacturer’s instructions. After quantification of protein levels using the Bradford method, proteins ([…]) were separated on 12.5% SDS-PAGE gels and transferred to PVDF membranes (GE Healthcare Life Science—Fisher Scientific). Membranes were probed with respective antibodies against human caspase-3, cleaved caspase-3, and PARP according to the manufacturer’s instructions. After incubation with appropriate secondary antibodies, blots were developed using the “ImmobilonWestern” substrate, following the manufacturer’s protocol, and G:BOX system (Syngene, Cambridge, UK). Membranes were then reblotted with human anti-β-actin used as a loading control.

[4] = test system: caspase-3 and PARP in PC3 cells; assay: Western blot of apoptosis-related proteins in PC3; format: cell-based, human; conditions: PC3, 48 h;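 note: compared with untreated control cells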
Method: as §3

HCT116 [5] = assay: Trypan blue dye exclusion method on HCT116; format: cell-based, human
Method: as §1, §2

[6] = test system: human CRC (HCT116 and HT-29) and human PCa (DU145 and PC3) cell lines; assay: MTT assay, summary statements over the cell lines; format: cell-based
Method: as §1, §2

HT-29 [7] = assay: Trypan blue dye exclusion method on HT-29; format: cell-based, human
Method: as §1, §2

[8] = test system: caspase-3 and PARP in HCT116 cells; assay: Western blot of apoptosis-related proteins in HCT116; format: cell-based, human; conditions: HCT116, 48 h;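 note: compared with untreated control cells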
Method: as §3

DU145 = assay: Trypan blue dye exclusion method on DU145; format: cell-based, human
Method: as §1, §2

HCT116 [9] = assay: MTT assay, antiproliferative effect on HCT116; format: cell-based; conditions: Homo sapiens
Method: as §1, §2

HT-29 [10] = assay: MTT assay, antiproliferative effect on HT-29; format: cell-based, human; conditions: Homo sapiens
Method: as §1, §2

[11] = test system: caspase-3 and PARP in DU145 cells; assay: Western blot of apoptosis-related proteins in DU145; format: cell-based, human; conditions: DU145, 48 h;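 note: compared with untreated control cells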
Method: as §3

COc1cc(C(=O)/C=C/c2coc3ccc(C)cc3c2=O)cc(OC)c1OC [chalcone 13, (E)-6-methyl-3-(3-oxo-3-(3,4,5-trimethoxyphenyl)prop-1-en-1-yl)-4H-chromen-4-one]
IC50 (PC3 [1]; Homo sapiens, PC-3, 48 h, from percentages of viable cells, read-out: IC50 Trypan Blue Test PC3): 5.33 µM
viability at 2.5 µM (PC3 [1]; Homo sapiens, PC-3, PC3, 48 h, 2.5 µM, read-out: Viable cells): 92.8%
viability at 5 µM (PC3 [1]; Homo sapiens, PC-3, PC3, 48 h, 5 µM, read-out: Viable cells): 54.3%
viability at 7.5 µM (PC3 [1]; Homo sapiens, PC-3, PC3, 48 h, 7.5 µM, read-out: Viable cells): 15.4%
Dead cells (PC3 [1]; PC3, 48 h, 2.5 µM): 9.51%
Dead cells (PC3 [1]; PC3, 48 h, 5 µM): 6.14%
Dead cells (PC3 [1]; PC3, 48 h, 7.5 µM): 4.23%
IC50 (PC3 [2]; PC-3, 24 h, read-out: IC50 PC3 24 h): 5.18 ± 0.39 µM
IC50 (PC3 [2]; PC-3, 48 h, read-out: IC50 PC3 48 h): 5.13 ± 0.25 µM
PARP cleavage (89 kDa fragment) [3]: clearly observed
cleaved caspase-3 [3]: clearly observed
native PARP expression [3]: strong decreased expression
pro-caspase-3 expression [3]: decreased
PARP cleavage (89 kDa fragment) [4]: clearly observed
cleaved caspase-3 [4]: clearly observed
native PARP expression [4]: strong decreased expression
pro-caspase-3 expression [4]: decreased
Dead cells (HCT116 [5]; HCT116, 48 h, 2.5 µM): 5.46%
Dead cells (HCT116 [5]; HCT116, 48 h, 5 µM): 11.11%
Dead cells (HCT116 [5]; HCT116, 48 h, 7.5 µM): 10.46%
IC50 (HCT116 [5]; Homo sapiens, HCT-116, 48 h, from percentages of viable cells, read-out: IC50 Trypan Blue Test HCT116): 3.48 µM
viability at 2.5 µM (HCT116 [5]; Homo sapiens, HCT-116, HCT116, 48 h, 2.5 µM, read-out: Viable cells): 74.1%
viability at 5 µM (HCT116 [5]; Homo sapiens, HCT-116, HCT116, 48 h, 5 µM, read-out: Viable cells): 19.6%
viability at 7.5 µM (HCT116 [5]; Homo sapiens, HCT-116, HCT116, 48 h, 7.5 µM, read-out: Viable cells): 10.1%
IC50 ([6]; Homo sapiens, 48 h, read-out: IC50 over the four cell lines): 2.6 to 5.1 µM
viability at 10 µM ([6]; Homo sapiens, 48 h, from the concentration of 10 µM, whole cell lines): < 10%
activity relative to chalcone 12 ([6]; comparison of IC50 values): four times more active
Dead cells (HT-29 [7]; HT-29, 48 h, 2.5 µM): 5.48%
Dead cells (HT-29 [7]; HT-29, 48 h, 7.5 µM): 9.04%
IC50 (HT-29 [7]; Homo sapiens, HT-29, 48 h, from percentages of viable cells, read-out: IC50 Trypan Blue Test HT-29): 4.05 µM
viability at 2.5 µM (HT-29 [7]; Homo sapiens, HT-29, 48 h, 2.5 µM, read-out: Viable cells): 72.2%
viability at 5 µM (HT-29 [7]; Homo sapiens, HT-29, 48 h, 5 µM, read-out: Viable cells): 37.6%
viability at 7.5 µM (HT-29 [7]; Homo sapiens, HT-29, 48 h, 7.5 µM, read-out: Viable cells): 18.5%
cleaved caspase-3 [8]: clearly observed
native PARP expression [8]: strong decreased expression
pro-caspase-3 expression [8]: decreased
Dead cells (DU145; DU145, 48 h, 2.5 µM): 3.24%
Dead cells (DU145; DU145, 48 h, 5 µM): 8.67%
Dead cells (DU145; DU145, 48 h, 7.5 µM): 6.49%
IC50 (DU145; Homo sapiens, DU-145, 48 h, from percentages of viable cells, read-out: IC50 Trypan Blue Test DU145): 3.98 µM
viability at 2.5 µM (DU145; Homo sapiens, DU-145, DU145, 48 h, 2.5 µM, read-out: Viable cells): 84.6%
viability at 5 µM (DU145; Homo sapiens, DU-145, DU145, 48 h, 5 µM, read-out: Viable cells): 29.3%
viability at 7.5 µM (DU145; Homo sapiens, DU-145, DU145, 48 h, 7.5 µM, read-out: Viable cells): 12.8%
IC50 (HCT116 [9]; HCT-116, 24 h, read-out: IC50 HCT116 24 h): 2860 ± 200 nM
IC50 (HCT116 [9]; HCT-116, 48 h, read-out: IC50 HCT116 48 h): 2590 ± 120 nM
IC50 (HT-29 [10]; HT-29, 24 h, 24 h, read-out: IC50 HT-29 24 h): 3.88 ± 0.08 µM
IC50 (HT-29 [10]; HT-29, 48 h, 48 h, read-out: IC50 HT-29 48 h): 3.1 ± 0.17 µM
PARP cleavage (89 kDa fragment) [11]: clearly observed
cleaved caspase-3 [11]: clearly observed
native PARP expression [11]: strong decreased expression
pro-caspase-3 expression [11]: decrease was less marked
